Source: article PMC8500670, “A selective WDR5 degrader inhibits acute myeloid leukemia in patient-derived mouse models” (Science translational medicine, 2021)
Where two headings read alike, the source gives them in different places.

How the values were obtained:
Assay in all cases: biochemical
Design in all cases: protein methyltransferase selectivity panel, enzyme activity relative to DMSO controls, single concentration in duplicate
DOT1L = DOT1L (Homo sapiens, UniProt Q8TEK3); details: Substrate:=Nucleosomes
DOT1L, sequence (Q8TEK3 whole entry): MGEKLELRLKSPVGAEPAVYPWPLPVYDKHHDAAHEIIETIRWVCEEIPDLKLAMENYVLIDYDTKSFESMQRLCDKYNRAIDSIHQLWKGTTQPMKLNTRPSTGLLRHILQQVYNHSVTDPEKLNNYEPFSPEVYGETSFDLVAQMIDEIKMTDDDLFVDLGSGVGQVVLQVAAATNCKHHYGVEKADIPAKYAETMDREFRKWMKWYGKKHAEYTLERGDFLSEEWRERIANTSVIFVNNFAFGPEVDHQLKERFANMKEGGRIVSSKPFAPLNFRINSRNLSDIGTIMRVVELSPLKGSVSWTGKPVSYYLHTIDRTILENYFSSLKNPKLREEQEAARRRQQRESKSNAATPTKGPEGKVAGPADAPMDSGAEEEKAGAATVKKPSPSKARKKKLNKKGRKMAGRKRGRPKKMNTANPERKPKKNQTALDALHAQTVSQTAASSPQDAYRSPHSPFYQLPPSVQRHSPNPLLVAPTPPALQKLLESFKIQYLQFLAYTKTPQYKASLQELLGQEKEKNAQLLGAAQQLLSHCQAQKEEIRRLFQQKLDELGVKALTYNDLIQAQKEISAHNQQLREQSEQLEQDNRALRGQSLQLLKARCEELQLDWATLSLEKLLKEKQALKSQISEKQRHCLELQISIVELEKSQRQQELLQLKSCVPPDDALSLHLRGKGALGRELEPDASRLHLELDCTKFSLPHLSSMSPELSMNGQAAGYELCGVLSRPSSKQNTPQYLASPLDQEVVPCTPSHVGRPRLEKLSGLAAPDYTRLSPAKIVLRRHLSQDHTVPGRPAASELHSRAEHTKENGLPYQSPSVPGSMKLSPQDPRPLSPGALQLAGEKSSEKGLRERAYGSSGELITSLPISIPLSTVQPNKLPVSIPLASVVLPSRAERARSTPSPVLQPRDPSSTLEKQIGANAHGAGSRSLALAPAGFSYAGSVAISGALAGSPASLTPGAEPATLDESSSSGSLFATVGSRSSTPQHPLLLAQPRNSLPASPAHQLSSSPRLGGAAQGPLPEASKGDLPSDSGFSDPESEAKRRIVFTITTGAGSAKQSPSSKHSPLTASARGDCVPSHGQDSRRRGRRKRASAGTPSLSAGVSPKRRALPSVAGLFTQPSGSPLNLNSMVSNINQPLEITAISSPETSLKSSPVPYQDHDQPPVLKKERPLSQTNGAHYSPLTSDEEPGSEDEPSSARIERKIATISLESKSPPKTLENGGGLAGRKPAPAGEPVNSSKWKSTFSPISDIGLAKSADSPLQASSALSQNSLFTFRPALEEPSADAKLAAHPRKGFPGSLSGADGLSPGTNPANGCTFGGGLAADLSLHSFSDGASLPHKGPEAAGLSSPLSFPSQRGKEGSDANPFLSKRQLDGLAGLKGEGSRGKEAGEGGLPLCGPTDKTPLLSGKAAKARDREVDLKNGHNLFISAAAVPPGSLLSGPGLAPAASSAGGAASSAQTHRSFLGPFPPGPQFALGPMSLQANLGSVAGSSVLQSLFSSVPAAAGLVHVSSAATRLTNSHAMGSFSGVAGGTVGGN
Experimental: (§1) We next assessed selectivity of MS67 against 22 protein methyltransferases (table S2) and a broad panel of common drug targets including 45 kinases (table S3) and 44 G protein–coupled receptors (GPCR), ion channels, and transporters (table S4). […] We subsequently determined that MS67 had moderate binding affinity (Ki = 1.0 ± 0.8 μM) to Sigma 2 receptor (fig. S10).

G9a = molecular target: T1, G9a (Homo sapiens, UniProt Q96KQ7); details: Substrate:=Histone H3 1-21
T1 construct: gene EHMT2
T1 sequence (Q96KQ7 1-1210): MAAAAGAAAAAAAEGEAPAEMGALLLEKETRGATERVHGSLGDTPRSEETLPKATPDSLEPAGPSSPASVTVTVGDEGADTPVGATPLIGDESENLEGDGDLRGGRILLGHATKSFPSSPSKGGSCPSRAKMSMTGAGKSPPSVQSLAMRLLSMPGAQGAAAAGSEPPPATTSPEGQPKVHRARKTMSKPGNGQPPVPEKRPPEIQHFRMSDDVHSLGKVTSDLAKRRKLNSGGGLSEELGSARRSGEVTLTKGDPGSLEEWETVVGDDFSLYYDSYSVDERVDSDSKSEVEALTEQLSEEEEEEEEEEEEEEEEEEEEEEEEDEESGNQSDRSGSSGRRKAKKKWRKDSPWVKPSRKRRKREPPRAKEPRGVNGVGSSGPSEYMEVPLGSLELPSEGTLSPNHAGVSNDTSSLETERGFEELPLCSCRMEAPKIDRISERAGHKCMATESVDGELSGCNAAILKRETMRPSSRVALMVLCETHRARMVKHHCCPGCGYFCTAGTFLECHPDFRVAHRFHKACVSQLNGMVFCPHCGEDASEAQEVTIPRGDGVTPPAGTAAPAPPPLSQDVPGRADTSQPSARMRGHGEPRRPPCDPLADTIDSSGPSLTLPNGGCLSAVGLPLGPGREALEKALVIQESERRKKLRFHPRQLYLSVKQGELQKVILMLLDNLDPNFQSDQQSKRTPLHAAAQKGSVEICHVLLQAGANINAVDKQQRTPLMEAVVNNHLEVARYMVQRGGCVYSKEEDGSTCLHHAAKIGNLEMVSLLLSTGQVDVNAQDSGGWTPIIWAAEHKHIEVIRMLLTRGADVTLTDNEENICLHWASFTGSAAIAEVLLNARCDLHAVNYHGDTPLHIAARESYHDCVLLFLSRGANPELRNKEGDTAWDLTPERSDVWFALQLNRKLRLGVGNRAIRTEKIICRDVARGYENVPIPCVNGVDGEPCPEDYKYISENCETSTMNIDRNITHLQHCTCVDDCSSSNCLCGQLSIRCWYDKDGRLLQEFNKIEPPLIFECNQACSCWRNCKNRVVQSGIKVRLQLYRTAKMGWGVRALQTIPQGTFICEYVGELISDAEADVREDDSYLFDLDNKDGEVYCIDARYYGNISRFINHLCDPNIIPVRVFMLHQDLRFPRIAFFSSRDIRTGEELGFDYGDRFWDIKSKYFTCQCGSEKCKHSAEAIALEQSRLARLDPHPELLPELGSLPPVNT
Experimental: as §1

SET8 = molecular target: T2, SET8 (Homo sapiens, UniProt Q9NQR1); details: Substrate:=Nucleosomes
T2 construct: gene KMT5A
T2 sequence (Q9NQR1 1-393): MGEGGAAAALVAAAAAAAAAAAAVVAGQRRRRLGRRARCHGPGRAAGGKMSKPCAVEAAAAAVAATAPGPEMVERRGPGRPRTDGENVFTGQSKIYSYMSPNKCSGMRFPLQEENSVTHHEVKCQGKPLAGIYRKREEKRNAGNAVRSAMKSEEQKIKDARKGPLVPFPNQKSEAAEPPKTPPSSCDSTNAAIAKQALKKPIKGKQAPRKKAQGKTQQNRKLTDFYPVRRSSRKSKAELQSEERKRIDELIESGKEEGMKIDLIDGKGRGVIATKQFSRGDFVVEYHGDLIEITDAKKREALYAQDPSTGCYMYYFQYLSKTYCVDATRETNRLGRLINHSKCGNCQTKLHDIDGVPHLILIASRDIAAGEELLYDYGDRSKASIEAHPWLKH
Experimental: as §1

SUV39H1 = molecular target: T3, SUV39H1 (Homo sapiens, UniProt O43463); details: Substrate:=Histone H3
T3 sequence (O43463 1-412): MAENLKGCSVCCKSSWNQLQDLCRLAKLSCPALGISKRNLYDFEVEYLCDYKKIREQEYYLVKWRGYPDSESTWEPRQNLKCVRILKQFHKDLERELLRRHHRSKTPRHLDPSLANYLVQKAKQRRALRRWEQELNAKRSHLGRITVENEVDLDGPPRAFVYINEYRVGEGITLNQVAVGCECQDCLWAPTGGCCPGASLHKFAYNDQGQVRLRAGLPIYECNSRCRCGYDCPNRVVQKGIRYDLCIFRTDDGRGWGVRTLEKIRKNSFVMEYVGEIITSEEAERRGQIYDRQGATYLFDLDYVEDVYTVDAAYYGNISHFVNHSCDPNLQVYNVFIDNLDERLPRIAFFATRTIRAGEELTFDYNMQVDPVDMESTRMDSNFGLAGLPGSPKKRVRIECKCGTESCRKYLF
Experimental: as §1

SUV39H2 = SUV39H2 (Homo sapiens, UniProt Q9H5I1); details: Substrate:=Histone H3; read-out: Enzyme % Activity (relative to DMSO controls) / MS67 / 10 / Data 1:
Experimental: as §1

[1] = read-out: Enzyme % Activity (relative to DMSO controls) / MS67 / 10 / Data 1:
[2] = read-out: Enzyme % Activity (relative to DMSO controls) / MS67 / 10 / Data 2:

SUV39H2, sequence (Q9H5I1 whole entry): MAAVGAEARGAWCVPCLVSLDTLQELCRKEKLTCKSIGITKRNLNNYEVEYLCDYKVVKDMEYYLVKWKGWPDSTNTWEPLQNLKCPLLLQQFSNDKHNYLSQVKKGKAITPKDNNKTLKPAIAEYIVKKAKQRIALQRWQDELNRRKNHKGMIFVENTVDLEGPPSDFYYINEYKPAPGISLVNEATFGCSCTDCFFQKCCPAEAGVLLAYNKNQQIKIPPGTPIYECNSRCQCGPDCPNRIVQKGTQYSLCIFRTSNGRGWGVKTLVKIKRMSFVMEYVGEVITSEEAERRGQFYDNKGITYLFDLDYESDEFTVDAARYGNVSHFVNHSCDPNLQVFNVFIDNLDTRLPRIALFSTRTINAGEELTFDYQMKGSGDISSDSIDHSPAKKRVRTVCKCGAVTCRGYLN

For `Cc1ncsc1-c1ccc([C@H](C)NC(=O)[C@@H]2C[C@@H](O)CN2C(=O)[C@@H](NC(=O)CNC(=O)c2ccc(F)c(-c3ccc(N4C[C@@H](C)N(C)[C@@H](C)C4)c(NC(=O)c4c[nH]c(=O)cc4C(F)(F)F)c3)c2)C(C)(C)C)cc1` [MS67], which remaining activity at 10 µM (DOT1L; [1]) is on record?
Its remaining activity at 10 µM is 95.8%.

And the remaining activity at 10 µM (DOT1L; [2])?
Its remaining activity at 10 µM is 92.3%.

What about the remaining activity at 10 µM (G9a; [1]) of the same compound?
The remaining activity at 10 µM was 93%.

And the remaining activity at 10 µM (G9a; [2])?
The remaining activity at 10 µM was 90.9%.

What about the remaining activity at 10 µM (SET8; [1]) of the same compound?
The remaining activity at 10 µM was 112%.

And the remaining activity at 10 µM (SET8; [2])?
Its remaining activity at 10 µM is 113%.

What about the remaining activity at 10 µM (SUV39H1; [1]) of the same compound?
The remaining activity at 10 µM was 96%.

And the remaining activity at 10 µM (SUV39H1; [2])?
Its remaining activity at 10 µM is 105%.

What about the remaining activity at 10 µM (SUV39H2) of the same compound?
The remaining activity at 10 µM was 102%.
